Test results from ChEMBL document CHEMBL5500349, “Discovery of ganoderic acid A (GAA) PROTACs as MDM2 protein degraders for the treatment of breast cancer” (Eur J Med Chem, 2024).
Calls of active or inactive are those of the source. The calls are words filed in the database; no cut-off is given here.

Key:
[1] = Toxicity in zebrafish assessed as mortality rate at 12.5 ug/ml; design: species or system Danio rerio; settings: in vivo, at 12.5 µg/mL, read-out: Activity
MDA-MB-231 [2] = assay: Upregulation of p21 expression in human MDA-MB-231 cells at 20 to 80 uM incubated for 48 hrs by immunofluorescence analysis; type: functional, cell-based; settings: dose 20-80 µM
[3] = Cytotoxicity against mouse HT-22 cells assessed as cell viability at 100 uM incubated for 48 to 72 hrs by MTT assay; type: toxicity, cell-based; settings: time 48-72 hrs, read-out: Activity
[4] = Toxicity in zebrafish assessed as mortality rate at 6.25 ug/ml; design: species or system Danio rerio; settings: in vivo, at 6.25 µg/mL, read-out: Activity
[5] = molecular target: T1, E3 ubiquitin-protein ligase Mdm2 (Homo sapiens, UniProt Q00987); assay: Binding affinity to MDM2 (unknown origin) by SPR assay
Target sequence in this assay (Q00987 whole entry): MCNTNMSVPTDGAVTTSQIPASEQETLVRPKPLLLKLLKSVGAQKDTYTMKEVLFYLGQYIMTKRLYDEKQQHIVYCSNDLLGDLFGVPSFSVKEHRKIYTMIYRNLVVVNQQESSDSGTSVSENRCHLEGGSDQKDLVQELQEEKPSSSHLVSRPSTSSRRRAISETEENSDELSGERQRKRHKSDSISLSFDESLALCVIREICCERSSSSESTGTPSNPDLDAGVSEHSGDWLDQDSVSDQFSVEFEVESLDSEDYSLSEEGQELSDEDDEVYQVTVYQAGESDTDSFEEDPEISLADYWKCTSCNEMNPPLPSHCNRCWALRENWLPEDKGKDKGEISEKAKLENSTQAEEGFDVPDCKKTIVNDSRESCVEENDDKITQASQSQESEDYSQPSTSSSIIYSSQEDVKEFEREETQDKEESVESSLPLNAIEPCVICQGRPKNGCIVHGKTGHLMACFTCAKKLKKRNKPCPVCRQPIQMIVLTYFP

MDA-MB-231 [6] = assay: Antitumor activity against human MDA-MB-231 cells xenografted in zebrafish assessed as inhibition rate at 25 ug/ml after 2 days by fluorescence microscopic method; type: functional; design: scale not given: the % may be the effect or the level left; settings: dose 25 µg/ml; time 2 day
MDA-MB-231 [7] = assay: Induction of apoptosis in human MDA-MB-231 cells assessed as reduction in bcl-2/bax ratio at 20 to 40 uM by Western blotting analysis; type: functional, cell-based; settings: dose 20-40 µM
MDA-MB-231 [8] = assay: Induction of apoptosis in human MDA-MB-231 cells assessed as late apoptotic cells at 80 uM incubated for 48 hrs by Annexin-V FITC/PI staining based flow cytometry analysis (reference value: 6.04%); type: functional
MDA-MB-231 [9] = assay: Induction of apoptosis in human MDA-MB-231 cells assessed as viable cells at 80 uM incubated for 48 hrs by Annexin-V FITC/PI staining based flow cytometry analysis (reference value: 90.3%); type: functional; settings: read-out: Activity
[10] = Toxicity in zebrafish assessed as mortality rate at 50 ug/ml; design: species or system Danio rerio; settings: in vivo, at 50 µg/mL, read-out: Activity
MDA-MB-231 [11] = assay: Induction of apoptosis in human MDA-MB-231 cells assessed as early apoptotic cells at 80 uM incubated for 48 hrs by Annexin-V FITC/PI staining based flow cytometry analysis (reference value: 3.37%); type: functional
[12] = Toxicity in zebrafish assessed as minimum toxic concentration measured after 2 days; design: species or system Danio rerio; settings: in vivo, 48 h, time 2 day
[13] = molecular target: T1, E3 ubiquitin-protein ligase Mdm2; assay: Binding affinity to MDM2 (unknown origin) assessed as increase in protein stability incubated for 30 mins by CETSA
Target sequence in this assay (Q00987 whole entry, looked up): as the sequence (Q00987 whole entry) above

[14] = Toxicity in zebrafish assessed as mortality rate at 100 ug/ml; design: species or system Danio rerio; settings: in vivo, at 100 µg/mL, read-out: Activity
MDA-MB-231 [15] = assay: Induction of apoptosis in human MDA-MB-231 cells assessed as necrotic cells at 40 uM incubated for 48 hrs by Annexin-V FITC/PI staining based flow cytometry analysis (reference value: 0.26%); type: functional
MDA-MB-231 [16] = assay: Antitumor activity against human MDA-MB-231 cells xenografted in zebrafish assessed as inhibition rate at 12.5 ug/ml after 2 days by fluorescence microscopic method; type: functional; design: scale not given: the % may be the effect or the level left; settings: dose 12.5 µg/ml; time 2 day
MDA-MB-231 [17] = assay: Downregulation of MDM2 expression in human MDA-MB-231 cells at 20 to 80 uM incubated for 48 hrs by immunofluorescence analysis; type: functional, cell-based; settings: dose 20-80 µM
MDA-MB-231 [18] = assay: Induction of apoptosis in human MDA-MB-231 cells assessed as necrotic cells at 80 uM incubated for 48 hrs by Annexin-V FITC/PI staining based flow cytometry analysis (reference value: 0.26%); type: functional
[19] = Toxicity in zebrafish assessed as mortality rate at 25 ug/ml; design: species or system Danio rerio; settings: in vivo, at 25 µg/mL, read-out: Activity
[20] = molecular target: T2, von Hippel-Lindau disease tumor suppressor/E3 ubiquitin-protein ligase Mdm2 (Homo sapiens, UniProt Q00987+P40337); assay: Protac activity at VHL/MDM2 in human MDA-MB-231 cells assessed as reduction in MDM2 protein level at 80 uM after 48 hrs by Western blotting analysis; type: cell-based; design: scale not given: the % may be the effect or the level left
[21] = molecular target: T2, von Hippel-Lindau disease tumor suppressor/E3 ubiquitin-protein ligase Mdm2; assay: Protac activity at VHL/MDM2 in human MDA-MB-231 cells assessed as reduction in MDM2 protein level at 80 uM pretreated with MG-132 for 2 hrs followed by compound addition and measured after 48 hrs by Western blotting analysis; type: cell-based
SJSA-1 = assay: Antiproliferative activity against human SJSA-1 cells assessed as cell viability at 100 uM incubated for 48 to 72 hrs by MTT assay; type: functional; settings: time 48-72 hrs, read-out: Activity
MDA-MB-231 [22] = assay: Induction of G2/M phase arrest in human MDA-MB-231 cells assessed as decrease in cyclin B1 protein expression at 20 to 80 uM by Western blotting analysis; type: functional, cell-based; settings: dose 20-80 µM
MCF7 = assay: Antiproliferative activity against human MCF7 cells assessed as cell viability at 100 uM incubated for 48 to 72 hrs by MTT assay; type: functional; settings: time 48-72 hrs, read-out: Activity
MDA-MB-231 [23] = assay: Inhibition of cell migration in human MDA-MB-231 cells at 80 uM incubated for 24 hrs by wound healing assay; type: functional, cell-based
HepG2 = assay: Antiproliferative activity against human HepG2 cells assessed as cell viability at 100 uM incubated for 48 to 72 hrs by MTT assay; type: functional; settings: time 48-72 hrs, read-out: Activity
MDA-MB-231 [24] = assay: Antitumor activity against human MDA-MB-231 cells xenografted in zebrafish assessed as inhibition rate at 50 ug/ml after 2 days by fluorescence microscopic method; type: functional; design: scale not given: the % may be the effect or the level left; settings: dose 50 µg/ml; time 2 day
[25] = Toxicity in zebrafish assessed as appearance of toxic phenotype at < 50 ug/ml; design: species or system Danio rerio; settings: in vivo, dose < 50 µg/ml
[26] = molecular target: T2, von Hippel-Lindau disease tumor suppressor/E3 ubiquitin-protein ligase Mdm2; assay: Protac activity at VHL/MDM2 in human MDA-MB-231 cells assessed as reduction in MDM2 protein level after 48 hrs by Western blotting analysis; type: cell-based; settings: dose 20-80 µM
MDA-MB-231 [27] = assay: Induction of apoptosis in human MDA-MB-231 cells assessed as early apoptotic cells at 20 uM incubated for 48 hrs by Annexin-V FITC/PI staining based flow cytometry analysis (reference value: 3.37%); type: functional
MDA-MB-231 [28] = assay: Induction of cell cycle arrest in human MDA-MB-231 cells assessed as decrease in number of S phase cells at 80 uM after 48 hrs by PI/RNase staining based flow cytometry analysis; type: functional
MDA-MB-231 [29] = assay: Antiproliferative activity against human MDA-MB-231 cells assessed as cell viability at 100 uM incubated for 48 to 72 hrs by MTT assay; type: functional; settings: time 48-72 hrs, read-out: Activity
MDA-MB-231 [30] = assay: Induction of apoptosis in human MDA-MB-231 cells assessed as viable cells at 40 uM incubated for 48 hrs by Annexin-V FITC/PI staining based flow cytometry analysis (reference value: 90.3%); type: functional; settings: read-out: Activity
[31] = Toxicity in zebrafish assessed as death at < 50 ug/ml; design: species or system Danio rerio; settings: in vivo, dose < 50 µg/ml
MDA-MB-231 [32] = assay: Inhibition of cell migration in human MDA-MB-231 cells at 80 uM incubated for 48 hrs by wound healing assay; type: functional, cell-based
MDA-MB-231 [33] = assay: Induction of apoptosis in human MDA-MB-231 cells assessed as viable cells at 20 uM incubated for 48 hrs by Annexin-V FITC/PI staining based flow cytometry analysis (reference value: 90.3%); type: functional; settings: read-out: Activity
MDA-MB-231 [34] = assay: Induction of G1/S phase arrest in human MDA-MB-231 cells assessed as increase in p21 mRNA expression at 20 to 80 uM by qRT-PCR analysis; type: functional, cell-based; settings: dose 20-80 µM
MDA-MB-231 [35] = assay: Induction of apoptosis in human MDA-MB-231 cells assessed as necrotic cells at 20 uM incubated for 48 hrs by Annexin-V FITC/PI staining based flow cytometry analysis (reference value: 0.26%); type: functional
MDA-MB-231 [36] = assay: Induction of apoptosis in human MDA-MB-231 cells assessed as late apoptotic cells at 20 uM incubated for 48 hrs by Annexin-V FITC/PI staining based flow cytometry analysis (reference value: 6.04%); type: functional
[37] = molecular target: T2, von Hippel-Lindau disease tumor suppressor/E3 ubiquitin-protein ligase Mdm2; assay: Protac activity at VHL/MDM2 in human MDA-MB-231 cells assessed as upregulation of p21 level at 20 to 80 uM after 48 hrs by Western blotting analysis; type: cell-based; settings: dose 20-80 µM
MDA-MB-231 [38] = assay: Induction of cell cycle arrest in human MDA-MB-231 cells assessed as increase in number of G2 phase cells at 80 uM after 48 hrs by PI/RNase staining based flow cytometry analysis; type: functional
MDA-MB-231 [39] = assay: Induction of cell cycle arrest in human MDA-MB-231 cells assessed as increase in number of G1 phase cells at 80 uM after 48 hrs by PI/RNase staining based flow cytometry analysis; type: functional
MDA-MB-231 [40] = assay: Induction of apoptosis in human MDA-MB-231 cells assessed as late apoptotic cells at 40 uM incubated for 48 hrs by Annexin-V FITC/PI staining based flow cytometry analysis (reference value: 6.04%); type: functional
MDA-MB-231 [41] = assay: Induction of apoptosis in human MDA-MB-231 cells assessed as early apoptotic cells at 40 uM incubated for 48 hrs by Annexin-V FITC/PI staining based flow cytometry analysis (reference value: 3.37%); type: functional

T2 sequence (P40337 whole entry, looked up): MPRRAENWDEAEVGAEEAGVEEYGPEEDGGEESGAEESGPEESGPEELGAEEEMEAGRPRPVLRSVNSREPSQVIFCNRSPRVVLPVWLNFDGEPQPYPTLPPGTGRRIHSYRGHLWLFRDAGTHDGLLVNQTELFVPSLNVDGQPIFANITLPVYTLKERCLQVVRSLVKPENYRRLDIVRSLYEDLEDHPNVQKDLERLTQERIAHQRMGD
T2 sequence (Q00987 whole entry, looked up): as the sequence (Q00987 whole entry) above

## Cc1ncsc1-c1ccc([C@H](C)NC(=O)[C@@H]2C[C@@H](O)CN2C(=O)[C@@H](NC(=O)CCCCc2cn(CCOCCOCCOCCOCCNC(=O)[C@H](C)CC(=O)C[C@@H](C)[C@H]3C[C@H](O)[C@@]4(C)C5=C(C(=O)C[C@]34C)[C@@]3(C)CCC(=O)C(C)(C)[C@@H]3C[C@@H]5O)nn2)C(C)(C)C)cc1
[1]
  mortality at 12.5 ug/ml: 0%
MDA-MB-231 [2]
  Activity: Active
[3]
  viability at 100 µM: 91.3%
[4]
  mortality at 6.25 ug/ml: 0%
[5]
  Kd: 38.2 µM
MDA-MB-231 [6]
  Activity: 23.4%
MDA-MB-231 [7]
  Activity: Active
MDA-MB-231 [8]
  Activity: 10.4%
MDA-MB-231 [9]
  viability at 80 µM: 41.4%
[10]
  mortality at 50 ug/ml: 0%
MDA-MB-231 [11]
  Activity: 47.4%
[12]
  MTC: 50 µg/mL
[13]
  Activity: Active
[14]
  mortality at 100 ug/ml: 13%
MDA-MB-231 [15]
  Activity: 0.13%
MDA-MB-231 [16]
  Activity: 16.8%
MDA-MB-231 [17]
  Activity: Active
MDA-MB-231 [18]
  Activity: 0.82%
[19]
  mortality at 25 ug/ml: 0%
[20]
  Activity: 51%
[21]
  Activity: inactive
SJSA-1
  viability at 100 µM: 61.3%
MDA-MB-231 [22]
  Activity: Active
MCF7
  viability at 100 µM: 30.6%
MDA-MB-231 [23]
  inhibition: Active
HepG2
  viability at 100 µM: 92.9%
MDA-MB-231 [24]
  Activity: 27.2%
[25]
  Activity: Non-Toxic
[26]
  Activity: Dose-Dependent Effect
MDA-MB-231 [27]
  Activity: 4.38%
MDA-MB-231 [28]
  Activity: Active
MDA-MB-231 [29]
  viability at 100 µM: 16.9%
MDA-MB-231 [30]
  viability at 40 µM: 82.3%
[31]
  Activity: Non-Toxic
MDA-MB-231 [32]
  inhibition: Active
MDA-MB-231 [33]
  viability at 20 µM: 90.1%
MDA-MB-231 [34]
  Activity: Active
MDA-MB-231 [35]
  Activity: 0.21%
MDA-MB-231 [36]
  Activity: 5.34%
[37]
  Activity: Active
MDA-MB-231 [38]
  Activity: Active
MDA-MB-231 [39]
  Activity: Active
MDA-MB-231 [40]
  Activity: 10.4%
MDA-MB-231 [41]
  Activity: 7.17%
